Reference: patent US6838416B2, “Herbicidal 5-benzyloxymethyl-1,2-isoxazoline derivatives” (Korea Research Institute of Chemical Technology, priority 2000, dated 2005)

How the values were obtained:
ORYSA (3-leaf stage) = test: Assay for herbicidal activity, paddy pots: phytotoxicity to transplanted rice seedlings; format: in vivo, Oryza sativa L.
Text: (§1) To evaluate herbicidal activity against the paddy weeds in the paddy rice (ORYSA: Oryza sativa L.), the herbicidal activity of the compounds of the invention was compared to that of the compound No.109 (compound A) disclosed in U.S. Pat. […] The paddy weeds tested were ECHOR (Echinochloa crus-galli var. oryzicola), SCPJU (Scirpus juncoides ROXB), MOOVA (Monochoria vaginalis […] (Cyperus serotinus ROTTB), and SAGPY (Sagittaria pygmaea MTQ). The vessels employed were plastic pots having an area of 140 cm^2 and filled with a sandy loam soil containing 1.2% organic matter (pH 6).

ORYSA (seed) = test: Assay for herbicidal activity, paddy pots: phytotoxicity to seeded (pregerminated) rice; format: in vivo, Oryza sativa L.
Text: as §1

ECHOR (seed) = test: Assay for herbicidal activity, paddy pots: ECHOR; format: in vivo, Echinochloa crus-galli var. oryzicola; details: for ECHOR (seed) herbicidal activity, visual percentage grading: three weeks after application, 0 untreated control, 100 complete kill
Text: as §1

SCPJU (seed) = test: Assay for herbicidal activity, paddy pots: SCPJU; format: in vivo, Scirpus juncoides ROXB; details: three weeks after application, 0 untreated control, 100 complete kill
Text: as §1

MOOVA (seed) = test: Assay for herbicidal activity, paddy pots: MOOVA; format: in vivo, Monochoria vaginalis PRESL; details: three weeks after application, 0 untreated control, 100 complete kill
Text: as §1

CYPSE (tuber) = test: Assay for herbicidal activity, paddy pots: CYPSE; format: in vivo, Cyperus serotinus ROTTB; details: three weeks after application, 0 untreated control, 100 complete kill
Text: as §1

SAGPY (tuber) = test: Assay for herbicidal activity, paddy pots: SAGPY; format: in vivo, Sagittaria pygmaea MTQ; details: three weeks after application, 0 untreated control, 100 complete kill
Text: as §1

[1] = 0.016 kg/ha, three weeks after application, 0 untreated control, 100 complete kill
[2] = 0.063 kg/ha, three weeks after application, 0 untreated control, 100 complete kill
[3] = 0.250 kg/ha, three weeks after application, 0 untreated control, 100 complete kill
[4] = 1.000 kg/ha, three weeks after application, 0 untreated control, 100 complete kill
[5] = 4.000 kg/ha, three weeks after application, 0 untreated control, 100 complete kill

| Structure (SMILES) | ECHOR (seed) herbicidal activity, visual percentage grading (ECHOR (seed); 0.016 kg/ha) [%] | ECHOR (seed) herbicidal activity, visual percentage grading (ECHOR (seed); 0.063 kg/ha) [%] | ECHOR (seed) herbicidal activity, visual percentage grading (ECHOR (seed); 0.250 kg/ha) [%] | ECHOR (seed) herbicidal activity, visual percentage grading (ECHOR (seed); 1.000 kg/ha) [%] | ECHOR (seed) herbicidal activity, visual percentage grading (ECHOR (seed); 4.000 kg/ha) [%] | SCPJU (seed) herbicidal activity, visual percentage grading (SCPJU (seed); 0.016 kg/ha) [%] | SCPJU (seed) herbicidal activity, visual percentage grading (SCPJU (seed); 0.063 kg/ha) [%] | SCPJU (seed) herbicidal activity, visual percentage grading (SCPJU (seed); 0.250 kg/ha) [%] | SCPJU (seed) herbicidal activity, visual percentage grading (SCPJU (seed); 1.000 kg/ha) [%] | SCPJU (seed) herbicidal activity, visual percentage grading (SCPJU (seed); 4.000 kg/ha) [%] | MOOVA (seed) herbicidal activity, visual percentage grading (MOOVA (seed); 0.016 kg/ha) [%] | MOOVA (seed) herbicidal activity, visual percentage grading (MOOVA (seed); 0.063 kg/ha) [%] | MOOVA (seed) herbicidal activity, visual percentage grading (MOOVA (seed); 0.250 kg/ha) [%] | MOOVA (seed) herbicidal activity, visual percentage grading (MOOVA (seed); 1.000 kg/ha) [%] | MOOVA (seed) herbicidal activity, visual percentage grading (MOOVA (seed); 4.000 kg/ha) [%] | CYPSE (tuber) herbicidal activity, visual percentage grading (CYPSE (tuber); 0.016 kg/ha) [%] | CYPSE (tuber) herbicidal activity, visual percentage grading (CYPSE (tuber); 0.063 kg/ha) [%] | CYPSE (tuber) herbicidal activity, visual percentage grading (CYPSE (tuber); 0.250 kg/ha) [%] | CYPSE (tuber) herbicidal activity, visual percentage grading (CYPSE (tuber); 1.000 kg/ha) [%] | CYPSE (tuber) herbicidal activity, visual percentage grading (CYPSE (tuber); 4.000 kg/ha) [%] | other results |
| --- | --- | --- | --- | --- | --- | --- | --- | --- | --- | --- | --- | --- | --- | --- | --- | --- | --- | --- | --- | --- | --- |
| Cc1ccsc1C1=NOC(C)(COCc2ccccc2F)C1 (stereo not drawn) [EXAMPLE 6, 5-(2-fluorobenzyl)oxymethyl-5-methyl-3-(4-methylthiophene-5-yl)-1,2-isoxazoline] | 20 | 100 | 100 | 100 | 100 | 20 | 80 | 80 | 100 | 100 | 0 | 70 | 80 | 80 | 100 | 100 | 100 | 100 | 100 | 100 | ORYSA (3-leaf stage) phytotoxicity, visual percentage grading (ORYSA (3-leaf stage); [1]): 0%; ORYSA (3-leaf stage) phytotoxicity, visual percentage grading (ORYSA (3-leaf stage); [2]): 20%; ORYSA (3-leaf stage) phytotoxicity, visual percentage grading (ORYSA (3-leaf stage); [3]): 20%; ORYSA (3-leaf stage) phytotoxicity, visual percentage grading (ORYSA (3-leaf stage); [4]): 30%; ORYSA (3-leaf stage) phytotoxicity, visual percentage grading (ORYSA (3-leaf stage); [5]): 30%; ORYSA (seed) phytotoxicity, visual percentage grading (ORYSA (seed); [1]): 0%; ORYSA (seed) phytotoxicity, visual percentage grading (ORYSA (seed); [2]): 40%; ORYSA (seed) phytotoxicity, visual percentage grading (ORYSA (seed); [3]): 100%; ORYSA (seed) phytotoxicity, visual percentage grading (ORYSA (seed); [4]): 100%; ORYSA (seed) phytotoxicity, visual percentage grading (ORYSA (seed); [5]): 100%; SAGPY (tuber) herbicidal activity, visual percentage grading (SAGPY (tuber); 0.016 kg/ha): 0%; SAGPY (tuber) herbicidal activity, visual percentage grading (SAGPY (tuber); 0.063 kg/ha): 0%; SAGPY (tuber) herbicidal activity, visual percentage grading (SAGPY (tuber); 0.250 kg/ha): 0%; SAGPY (tuber) herbicidal activity, visual percentage grading (SAGPY (tuber); 1.000 kg/ha): 30%; SAGPY (tuber) herbicidal activity, visual percentage grading (SAGPY (tuber); 4.000 kg/ha): 30% |
| CC1(COCc2c(F)cccc2F)CC(c2ccc(Br)s2)=NO1 (stereo not drawn) [EXAMPLE 11, 5-(2,6-difluorobenzyl)oxymethyl-5-methyl-3-(2-bromothiophene-5-yl)-1,2-isoxazoline] | 20 | 70 | 100 | 100 | 100 | 0 | 0 | 20 | 30 | 80 | 30 | 50 | 90 | 100 | 100 | 0 | 0 | 40 | 100 | 100 | ORYSA (3-leaf stage) phytotoxicity, visual percentage grading (ORYSA (3-leaf stage); in vivo): 0%; SAGPY (tuber) herbicidal activity, visual percentage grading (SAGPY (tuber); 0.016 kg/ha): 0%; SAGPY (tuber) herbicidal activity, visual percentage grading (SAGPY (tuber); 0.063 kg/ha): 0%; SAGPY (tuber) herbicidal activity, visual percentage grading (SAGPY (tuber); 0.250 kg/ha): 0%; SAGPY (tuber) herbicidal activity, visual percentage grading (SAGPY (tuber); 1.000 kg/ha): 30%; SAGPY (tuber) herbicidal activity, visual percentage grading (SAGPY (tuber); 4.000 kg/ha): 50% |
| CC1(COCc2cccc(F)c2)CC(c2sccc2Br)=NO1 (stereo not drawn) [EXAMPLE 18, 5-(3-fluorobenzyl)oxymethyl-5-methyl-3-(4-bromothiophene-5-yl)-1,2-isoxazoline] | 0 | 60 | 100 | 100 | 100 | 0 | 10 | 100 | 100 | 100 | 0 | 100 | 100 | 100 | 100 | 0 | 40 | 70 | 100 | 100 | ORYSA (3-leaf stage) phytotoxicity, visual percentage grading (ORYSA (3-leaf stage); in vivo): 0%; ORYSA (seed) phytotoxicity, visual percentage grading (ORYSA (seed); in vivo): 100%; SAGPY (tuber) herbicidal activity, visual percentage grading (SAGPY (tuber); 0.016 kg/ha): 0%; SAGPY (tuber) herbicidal activity, visual percentage grading (SAGPY (tuber); 0.063 kg/ha): 0%; SAGPY (tuber) herbicidal activity, visual percentage grading (SAGPY (tuber); 0.250 kg/ha): 0%; SAGPY (tuber) herbicidal activity, visual percentage grading (SAGPY (tuber); 1.000 kg/ha): 0%; SAGPY (tuber) herbicidal activity, visual percentage grading (SAGPY (tuber); 4.000 kg/ha): 20% |
| CC1(COCc2c(F)cccc2F)CC(c2sccc2Br)=NO1 (stereo not drawn) [EXAMPLE 19, 5-(2,6-difluorobenzyl)oxymethyl-5-methyl-3-(4-bromothiophene-5-yl)-1,2-isoxazoline] | 100 | 100 | 100 | 100 | 100 | 0 | 100 | 100 | 100 | 100 | 20 | 95 | 100 | 100 | 100 | 30 | 90 | 90 | 100 | 100 | herbicidal activity on ECHOR, in words (ECHOR (seed); low dose of 0.016 Kg/ha): completely controls the growth of ECHOR; SAGPY (tuber) herbicidal activity, visual percentage grading (SAGPY (tuber); 0.016 kg/ha): 0%; SAGPY (tuber) herbicidal activity, visual percentage grading (SAGPY (tuber); 0.063 kg/ha): 0%; SAGPY (tuber) herbicidal activity, visual percentage grading (SAGPY (tuber); 0.250 kg/ha): 0%; SAGPY (tuber) herbicidal activity, visual percentage grading (SAGPY (tuber); 1.000 kg/ha): 20%; SAGPY (tuber) herbicidal activity, visual percentage grading (SAGPY (tuber); 4.000 kg/ha): 30% |
